Measured values: patent EP4810486A1, “CRYSTAL OF HETEROCYCLIC DERIVATIVE” (Nippon Shinyaku Co., Ltd., priority 2023, dated 2025)

Legend:
Type in all cases: physicochemical
[1] = Stability of Form-I crystal in various solvents (X-ray powder diffraction); conditions: pulverized crystal in methanol, ethyl acetate or methyl ethyl ketone, 40°C, 115 hours
Description: In order to facilitate the transition of the crystal form by a solvent, the Form-I crystal of the p-TsOH salt of the compound A was pulverized in a mortar. The obtained pulverized material was added to methanol, ethyl acetate, or methyl ethyl ketone, and the mixture was stirred at 40°C for 115 hours. After stirring, the crystal form of the p-TsOH salt of the compound A in the solution was examined by X-ray powder diffraction, and the results are shown in FIG. 28.

[2] = Crystal form transition on heating (relative stability of crystal forms)
Description: The Form-V crystal of the p-TsOH salt of the compound A obtained in Comparative Example 1 was heated at 205°C for 10 minutes, and as a result, a Form-III crystal of the p-TsOH salt of the compound A was obtained.
The Form-VI crystal of the p-TsOH salt of the compound A obtained in Comparative Example 2 was heated at 190°C for 10 minutes, and as a result, a Form-III crystal of the p-TsOH salt of the compound A was obtained.

[3] = Stability test of Form-I crystal when mixed with excipient (40°C, 75% relative humidity, open system; HPLC and visual inspection); conditions: for observation of the color of the crystal: crystal only and all excipient mixtures, visual inspection
Description: The Form-I crystal of the p-TsOH salt of the compound A was mixed with each of various excipients at a mass ratio of 1:1 using a mortar, was allowed to stand in a thermo-hygrostat at a temperature of 40°C and a relative humidity of 75% in an open system for 2 weeks or 1 month, and then evaluated for the presence/absence of decomposition using HPLC and checked for color change by visual inspection. The stability of only the Form-I crystal of the p-TsOH salt of the compound A was also evaluated as a reference. The conditions for HPLC are as follows. • Instrument: SHIMADZU LC-2010 CHT • Column: COSMOSIL 3C18-MSII 4.6×100 mm • Column temperature: 40°C • Mobile phase: Liquid A; MeCN/H2O/MsOH = 600/400/1 Liquid B: MeCN/H2O/MsOH = 900/100/1 • Gradient: 0-8 min; A = 100% • 8-10 min; A to B • 10-20 min; B = 100% • 20-21 min; B to A • Flow rate: 0.5 mL/min • Wavelength: 230 nm
The results of the percentage (%) of the area of the peak of the Form-I crystal of the p-TsOH salt of the compound A in the observed peaks in HPLC and observation of the color of the crystal are shown in Table 3. According to Table 3, no decomposition of the Form-I crystal of the p-TsOH salt of the compound A was observed under the conditions of mixing with any of the excipients, and no color change occurred. […]

[4] = Relative stability of Form-I to Form-III crystals: pairs stirred in acetone (X-ray powder diffraction); conditions: pairs at mass ratio 1:1 in acetone, 30°C, 42 hours
Description: The Form-I crystal and the Form-II crystal of the p-TsOH salt of the compound A, the Form-I crystal and the Form-III crystal of the p-TsOH salt of the compound A, or the Form-II crystal and the Form-III crystal of the p-TsOH salt of the compound A were added to acetone at a mass ratio of 1:1, and the mixture was stirred at 30°C for 42 hours. Then, the crystal form of the p-TsOH salt of the compound A in the solution was examined by X-ray powder diffraction, and as a result, under all the three conditions, each of the crystals of the p-TsOH salt of the compound A in the solution transitioned to a Form-I crystal.

[5] = Stability of crystal form on mechanical stimulus and water (X-ray powder diffraction); conditions: pulverized, water-treated, stored at 30°C, relative humidity 90%, tableted (2,000 kgf × 30 min)
Description: X-ray powder diffraction measurement was performed for a crystal (pulverized) obtained by pulverizing the Form-I crystal of the p-TsOH salt of the compound A in a mortar, a crystal (water-treated) obtained by kneading the Form-I crystal of the p-TsOH salt of the compound A after adding water, a sample of the Form-I crystal of the p-TsOH salt of the compound A stored under a humidifying stimulus condition (30°C, relative humidity of 90%), and a sample obtained by tableting the Form-I crystal of the p-TsOH salt of the compound A (2,000 kgf × 30 min). The results are shown in FIG. 24 together with the results of the Form-I crystal of the p-TsOH salt of the compound A not undergoing any treatment (untreated).

[6] = Crystal form transition on standing at 40°C and 75% relative humidity (relative stability); conditions: 1/2 acetonitrile solvate crystal at 40°C, relative humidity 75%, 7 days gave Form-IV crystal
Description: About 10 mg of the 1/2 acetonitrile solvate crystal of the p-TsOH salt of the compound A obtained in Example 3 was allowed to stand at 40°C and a relative humidity of 75% for 7 days, and as a result, a Form-IV crystal of the p-TsOH salt of the compound A was obtained.

[7] = Thermal stability of Form-II crystal (X-ray powder diffraction while heating and cooling); conditions: heated to 30°C, 150°C, 200°C, then cooled to 150°C and 30°C
Description: Therefore, for the Form-II crystal of the p-TsOH salt of the compound A, the crystal form was examined by X-ray powder diffraction while increasing the temperature to 30°C, 150°C, and 200°C, and then the crystal form was further examined by X-ray powder diffraction while cooling to 150°C and 30°C.

[8] = Differential thermal analysis and thermogravimetric analysis (TG/DTA); conditions: heating rate 10.0°C/min, nitrogen
Description: TG/DTA in Examples 1 to 11 was measured by TG-8120 (manufactured by Rigaku Corporation) (cell: alumina (open), gas: nitrogen, heating rate: 10.0°C/min, hold temperature: 300°C, hold time: 0 min) unless otherwise specified.
The results of differential scanning calorimetry (DSC) of the Form-I crystal of the p-TsOH salt of the compound A are shown in FIG. 2. The results of thermophysical property measurement by differential thermal analysis (DTA) and thermogravimetric analysis (TGA) of the Form-I crystal of the p-TsOH salt of the compound A are shown in FIG. 3.

[9] = Stability test of Form-III crystal at 40°C and 75% relative humidity; conditions: relative humidity 75%
Description: About 10 mg of the Form-III crystal of the p-TsOH salt of the compound A obtained in Example 2 was allowed to stand at 40°C and a relative humidity of 75% for 7 days or longer, and as a result, the Form-III crystal of the p-TsOH salt of the compound A was able to exist stably for 7 days or longer.

[10] = Relative stability between crystals: six forms stirred together in DMF/toluene (X-ray powder diffraction); conditions: Form-I, III, IV, V, VI, VII, 100 mg each, in DMF/toluene 1:9, stirred at 20°C or 55°C
Description: The crystals of the p-TsOH salt of the compound A prepared in Examples 1 to 3 and Comparative Examples 1 to 3 were each weighed in 100 mg, a total of 600 mg was added to 30 mL of a mixed solvent of DMF and toluene having a volume ratio of 1:9, and the mixture was stirred at 20°C or 55°C. After 3, 4, 7, and 8 days from the start of stirring at 20°C, and after 3 and 4 days from the start of stirring at 55°C, the crystal form of the p-TsOH salt of the compound A in the mixed solution was measured by X-ray powder diffraction.

[11] = Stability evaluation on exposure to heating, light or humidifying stimulus (HPLC)
Description: The Form-I crystal of the p-TsOH salt of the compound A and the free form crystal of the compound A prepared according to the method described in PATENT DOCUMENT 1 were exposed to heating stimulus (allowed to stand at 60°C for 24 hours), light stimulus (light source: D65 lamp, total intensity: 1.2 million lx·hr), or humidifying stimulus (allowed to stand at 30°C and a relative humidity of 90% for 24 hours), and the stability thereof was evaluated based on the percentage (%) of the area of the peak of the free form of the compound A or the Form-I crystal of the p-TsOH salt of the compound A in the observed peaks in HPLC with and without exposure to the stimuli.

[12] = Heating stimulus: 60°C for 24 hours
[13] = Humidifying stimulus: 30°C, relative humidity 90%, 24 hours
[14] = Light stimulus: D65 lamp, total intensity 1.2 million lx·hr

COCc1nc2c(C(=O)Nc3cccc(Cl)c3C)cc(NC(=O)c3ccccc3C(F)(F)F)cc2[nH]1.Cc1ccc(S(=O)(=O)O)cc1 [N-(3-chloro-2-methylphenyl)-2-(methoxymethyl)-6-({[2-(trifluoromethyl)phenyl]carbonyl}amino)-1H-benzimidazole-4-carboxamide 4-methylbenzenesulfonate]
change in crystal form [1]: no change in crystal form was observed under any of the conditions | relative stability of crystal forms ([2]; Form-V crystal heated at 205°C for 10 minutes gave Form-III crystal): higher stability than the Form-V crystal | relative stability of crystal forms ([2]; Form-VI crystal heated at 190°C for 10 minutes gave Form-III crystal): higher stability than the Form-VI crystal | percentage (%) of the area of the peak of the Form-I crystal of the p-TsOH salt of the compound A in the observed peaks in HPLC ([3]; Crystal only, 1 month at 40°C, relative humidity 75%, open system): 99.68% | percentage (%) of the area of the peak of the Form-I crystal of the p-TsOH salt of the compound A in the observed peaks in HPLC ([3]; Crystal only, 2 weeks at 40°C, relative humidity 75%, open system): 99.70% | percentage (%) of the area of the peak of the Form-I crystal of the p-TsOH salt of the compound A in the observed peaks in HPLC ([3]; Crystal only, immediately after mixing): 99.71% | observation of the color of the crystal ([3]; 1 month at 40°C, relative humidity 75%): No color change under any conditions | observation of the color of the crystal ([3]; 2 weeks at 40°C, relative humidity 75%): No color change under any conditions | percentage (%) of the area of the peak of the Form-I crystal of the p-TsOH salt of the compound A in the observed peaks in HPLC ([3]; mixed 1:1 with Corn starch, 1 month at 40°C, relative humidity 75%): 99.66% | percentage (%) of the area of the peak of the Form-I crystal of the p-TsOH salt of the compound A in the observed peaks in HPLC ([3]; mixed 1:1 with Corn starch, 2 weeks at 40°C, relative humidity 75%): 99.66% | percentage (%) of the area of the peak of the Form-I crystal of the p-TsOH salt of the compound A in the observed peaks in HPLC ([3]; mixed 1:1 with Corn starch, immediately after mixing): 99.71% | percentage (%) of the area of the peak of the Form-I crystal of the p-TsOH salt of the compound A in the observed peaks in HPLC ([3]; mixed 1:1 with Crystalline cellulose, 1 month at 40°C, relative humidity 75%): 99.69% | percentage (%) of the area of the peak of the Form-I crystal of the p-TsOH salt of the compound A in the observed peaks in HPLC ([3]; mixed 1:1 with Crystalline cellulose, 2 weeks at 40°C, relative humidity 75%): 99.65% | percentage (%) of the area of the peak of the Form-I crystal of the p-TsOH salt of the compound A in the observed peaks in HPLC ([3]; mixed 1:1 with Crystalline cellulose, immediately after mixing): 99.73% | percentage (%) of the area of the peak of the Form-I crystal of the p-TsOH salt of the compound A in the observed peaks in HPLC ([3]; mixed 1:1 with D-Mannitol, 1 month at 40°C, relative humidity 75%): 99.71% | percentage (%) of the area of the peak of the Form-I crystal of the p-TsOH salt of the compound A in the observed peaks in HPLC ([3]; mixed 1:1 with D-Mannitol, 2 weeks at 40°C, relative humidity 75%): 99.70% | percentage (%) of the area of the peak of the Form-I crystal of the p-TsOH salt of the compound A in the observed peaks in HPLC ([3]; mixed 1:1 with D-Mannitol, immediately after mixing): 99.63% | percentage (%) of the area of the peak of the Form-I crystal of the p-TsOH salt of the compound A in the observed peaks in HPLC ([3]; mixed 1:1 with Lactose, 1 month at 40°C, relative humidity 75%): 99.58% | percentage (%) of the area of the peak of the Form-I crystal of the p-TsOH salt of the compound A in the observed peaks in HPLC ([3]; mixed 1:1 with Lactose, 2 weeks at 40°C, relative humidity 75%): 99.74% | percentage (%) of the area of the peak of the Form-I crystal of the p-TsOH salt of the compound A in the observed peaks in HPLC ([3]; mixed 1:1 with Lactose, immediately after mixing): 99.64% | most stable form among Form-I, Form-II and Form-III crystals [4]: the most stable form | change in crystal form [5]: no change in crystal form was observed under any of the conditions | relative stability of crystal forms [6]: higher stability than the 1/2 acetonitrile solvate crystal of the p-TsOH salt of the compound A obtained in Example 3 | stability against heat [7]: rather stable against heat | thermal stability in DTA/TGA [8]: stable without any weight change or endothermic or exothermic heat until decomposition at 200 °C or higher | time for which the crystal was able to exist stably [9]: ≥ 7 days | most stable form among the crystals [10]: the most stable form | percentage (%) of the area of the peak in the observed peaks in HPLC [11, 12]: 99.69% | percentage (%) of the area of the peak in the observed peaks in HPLC [11, 13]: 99.68% | percentage (%) of the area of the peak in the observed peaks in HPLC [11, 14]: 99.72% | percentage (%) of the area of the peak in the observed peaks in HPLC ([11]; No stimulus): 99.70% | change in the color of the crystal ([11]; after exposure to heating, light or humidifying stimulus): no change in the color of the crystal was observed

COCc1nc2c(C(=O)Nc3cccc(Cl)c3C)cc(NC(=O)c3ccccc3C(F)(F)F)cc2[nH]1 [Free form of compound A, N-(3-chloro-2-methylphenyl)-2-(methoxymethyl)-6-({[2-(trifluoromethyl)phenyl]carbonyl}amino)-1H-benzimidazole-4-carboxamide]
percentage (%) of the area of the peak in the observed peaks in HPLC [11, 12]: 99.76% | percentage (%) of the area of the peak in the observed peaks in HPLC [11, 13]: 99.76% | percentage (%) of the area of the peak in the observed peaks in HPLC [11, 14]: 99.74% | percentage (%) of the area of the peak in the observed peaks in HPLC ([11]; No stimulus): 99.78%
